What follows are compounds tested against T1, Recombinant human liver GK1 (GST-GK) (Homo sapiens, UniProt P35557) (assay: Glucokinase in vitro assay (G6PDH-coupled NADH generation, OD340)). Details: 5 mM D-glucose, 30° C., pH 7.1, 10% DMSO.
T1 construct: made in house; host or cells: E. coli
T1 sequence (P35557 1-466 isoform P35557-2): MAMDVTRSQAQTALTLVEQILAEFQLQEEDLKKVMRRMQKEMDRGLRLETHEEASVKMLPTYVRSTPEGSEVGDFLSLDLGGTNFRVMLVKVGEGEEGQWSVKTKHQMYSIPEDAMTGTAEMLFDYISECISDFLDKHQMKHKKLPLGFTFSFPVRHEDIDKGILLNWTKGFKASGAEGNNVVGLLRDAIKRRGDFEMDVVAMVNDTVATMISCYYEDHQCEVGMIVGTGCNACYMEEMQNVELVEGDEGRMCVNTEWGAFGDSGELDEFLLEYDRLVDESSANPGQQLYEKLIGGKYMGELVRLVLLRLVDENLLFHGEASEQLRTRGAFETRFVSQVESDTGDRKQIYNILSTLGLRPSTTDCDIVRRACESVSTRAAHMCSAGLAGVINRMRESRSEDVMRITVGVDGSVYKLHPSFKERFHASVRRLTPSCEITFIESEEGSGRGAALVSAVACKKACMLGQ
Format: biochemical
Method in brief: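 Activation readout is SC1.5, the activator concentration raising GK rate (OD340/min) 50% above 10% DMSO controls. The coupled reaction used GST-GK1 from E. coli, 5 mM glucose, 1 mM ATP, 1.8 mM NAD and 25 mM Hepes pH 7.1 at 30° C. Enzyme was added after a 10 min compound pre-incubation.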

| SMILES | SC1.5 average (concentration of activator that produced a 50% increase in the activity of GK) [µM] |
| --- | --- |
| O=C(Nc1ccn(C[C@@H](O)CO)n1)C(CC1CCOCC1)n1ncc(Oc2c(F)cccc2F)cc1=O (stereo partly drawn) [Example 62, 2-[4-(2,6-difluoro-phenoxy)-6-oxo-6H-pyridazin-1-yl]-N-[1-((R)-2,3-dihydroxy-propyl)-1H-pyrazol-3-yl]-3-(tetrahydro-pyran-4-yl)-propionamide] | 0.373 |
| O=C(Nc1ccn(C[C@@H](O)CO)n1)C(CC1CCCCC1)n1ncc(Oc2c(F)cccc2F)cc1=O (stereo partly drawn) [Example 63, 3-Cyclohexyl-2-[4-(2,6-difluoro-phenoxy)-6-oxo-6H-pyridazin-1-yl]-N-[1-((R)-2,3-dihydroxy-propyl)-1H-pyrazol-3-yl]-propionamide] | 0.117 |
| CCC(CC)CC(C(=O)Nc1ccn(C[C@@H](O)CO)n1)n1ncc(Oc2c(F)cccc2F)cc1=O (stereo partly drawn) [Example 64, 2-[4-(2,6-Difluoro-phenoxy)-6-oxo-6H-pyridazin-1-yl]-4-ethyl-hexanoic acid [1-((R)-2,3-dihydroxy-propyl)-1H-pyrazol-3-yl]-amide] | 0.551 |
| O=C(Nc1ccn(C[C@H](O)CO)n1)C(CC1CCCC1)n1ncc(Oc2c(F)cccc2F)cc1=O (stereo partly drawn) [Example 65, 3-Cyclopentyl-2-[4-(2,6-difluoro-phenoxy)-6-oxo-6H-pyridazin-1-yl]-N-[1-((S)-2,3-dihydroxy-propyl)-1H-pyrazol-3-yl]-propionamide] | 0.102 |
| O=C(Nc1ccn(C[C@H](O)CO)n1)[C@H](CC1CCCC1)n1ncc(Oc2c(F)cccc2F)cc1=O [Example 65A, (S)-3-Cyclopentyl-2-[4-(2,6-difluoro-phenoxy)-6-oxo-6H-pyridazin-1-yl]-N-[1-((S)-2,3-dihydroxy-propyl)-1H-pyrazol-3-yl]-propionamide] | 0.049 |
| O=C(Nc1ccn(C[C@H](O)CO)n1)[C@@H](CC1CCCC1)n1ncc(Oc2c(F)cccc2F)cc1=O [Example 65B, (R)-3-Cyclopentyl-2-[4-(2,6-difluoro-phenoxy)-6-oxo-6H-pyridazin-1-yl]-N-[1-((S)-2,3-dihydroxy-propyl)-1H-pyrazol-3-yl]-propionamide] | 3.148 |
| COC(=O)c1ccc(NC(=O)C(CC2CCCC2)n2ncc(Oc3ccccc3C3CCCC3)cc2=O)nc1 (stereo not shown) [Example 66, 6-{3-Cyclopentyl-2-[4-(2-cyclopentyl-phenoxy)-6-oxo-6H-pyridazin-1-yl]-propionylamino}-nicotinic acid methyl ester] | 1.74 |
| COC(=O)c1ccc(NC(=O)C(CC2CCCC2)n2ncc(Oc3cccc4c3CCCC4)cc2=O)nc1 (stereo not shown) [Example 67, 6-{3-Cyclopentyl-2-[6-oxo-4-(5,6,7,8-tetrahydro-naphthalen-1-yloxy)-6H-pyridazin-1-yl]-propionylamino}-nicotinic acid methyl ester] | 0.132 |
| COC(=O)c1ccc(NC(=O)C(CC2CCCC2)n2ncc(Oc3c(F)cccc3F)cc2=O)nc1 (stereo not shown) [Example 68, 6-{3-Cyclopentyl-2-[4-(2,6-difluoro-phenoxy)-6-oxo-6H-pyridazin-1-yl]-propionylamino}-nicotinic acid methyl ester] | 0.013 |
| COC(=O)c1ccc(NC(=O)[C@H](CC2CCCC2)n2ncc(Oc3c(F)cccc3F)cc2=O)nc1 [Example 68A, 6-{(S)-3-Cyclopentyl-2-[4-(2,6-difluoro-phenoxy)-6-oxo-6H-pyridazin-1-yl]-propionylamino}-nicotinic acid methyl ester] | 0.008 |
| COC(=O)c1ccc(NC(=O)[C@@H](CC2CCCC2)n2ncc(Oc3c(F)cccc3F)cc2=O)nc1 [Example 68B, 6-{(R)-3-Cyclopentyl-2-[4-(2,6-difluoro-phenoxy)-6-oxo-6H-pyridazin-1-yl]-propionylamino}-nicotinic acid methyl ester] | 0.597 |
| COC(=O)c1ccc(NC(=O)C(CC2CCCC2)n2ncc(Oc3ccccc3C)cc2=O)nc1 (stereo not shown) [Example 69, 6-[3-Cyclopentyl-2-(6-oxo-4-o-tolyloxy-6H-pyridazin-1-yl)-propionylamino]-nicotinic acid methyl ester] | 0.033 |
| COC(=O)c1ccc(NC(=O)C(CC2CCCC2)n2ncc(Oc3ccccc3F)cc2=O)nc1 (stereo not shown) [Example 70, 6-{3-Cyclopentyl-2-[4-(2-fluoro-phenoxy)-6-oxo-6H-pyridazin-1-yl]-propionylamino}-nicotinic acid methyl ester] | 0.036 |
| O=C(O)c1ccc(NC(=O)C(CC2CCCC2)n2ncc(Oc3cccc4c3CCCC4)cc2=O)nc1 (stereo not shown) [Example 72, 6-{3-Cyclopentyl-2-[6-oxo-4-(5,6,7,8-tetrahydro-naphthalen-1-yloxy)-6H-pyridazin-1-yl]-propionylamino}-nicotinic acid] | 0.098 |
| O=C(O)c1ccc(NC(=O)[C@H](CC2CCCC2)n2ncc(Oc3cccc4c3CCCC4)cc2=O)nc1 [Example 72A, 6-{(S)-3-Cyclopentyl-2-[6-oxo-4-(5,6,7,8-tetrahydro-naphthalen-1-yloxy)-6H-pyridazin-1-yl]-propionylamino}-nicotinic acid] | 0.044 |
| O=C(O)c1ccc(NC(=O)[C@@H](CC2CCCC2)n2ncc(Oc3cccc4c3CCCC4)cc2=O)nc1 [Example 72B, 6-{(R)-3-Cyclopentyl-2-[6-oxo-4-(5,6,7,8-tetrahydro-naphthalen-1-yloxy)-6H-pyridazin-1-yl]-propionylamino}-nicotinic acid] | 0.226 |
| O=C(O)c1ccc(NC(=O)C(CC2CCCC2)n2ncc(Oc3c(F)cccc3F)cc2=O)nc1 (stereo not shown) [Example 73, 6-{3-Cyclopentyl-2-[4-(2,6-difluoro-phenoxy)-6-oxo-6H-pyridazin-1-yl]-propionylamino}-nicotinic acid] | 0.026 |
| O=C(O)c1ccc(NC(=O)[C@H](CC2CCCC2)n2ncc(Oc3c(F)cccc3F)cc2=O)nc1 [Example 73A, 6-{(S)-3-Cyclopentyl-2-[4-(2,6-difluoro-phenoxy)-6-oxo-6H-pyridazin-1-yl]-propionylamino}-nicotinic acid] | 0.012 |
| O=C(O)c1ccc(NC(=O)[C@@H](CC2CCCC2)n2ncc(Oc3c(F)cccc3F)cc2=O)nc1 [Example 73B, 6-{(R)-3-Cyclopentyl-2-[4-(2,6-difluoro-phenoxy)-6-oxo-6H-pyridazin-1-yl]-propionylamino}-nicotinic acid] | 0.507 |
| Cc1ccccc1Oc1cnn(C(CC2CCCC2)C(=O)Nc2ccc(C(=O)O)cn2)c(=O)c1 (stereo not shown) [Example 74, 6-[3-Cyclopentyl-2-(6-oxo-4-o-tolyloxy-6H-pyridazin-1-yl)-propionylamino]-nicotinic acid] | 0.067 |
| Cc1ccccc1Oc1cnn([C@@H](CC2CCCC2)C(=O)Nc2ccc(C(=O)O)cn2)c(=O)c1 [Example 74A, 6-[(S)-3-Cyclopentyl-2-(6-oxo-4-o-tolyloxy-6H-pyridazin-1-yl)-propionylamino]-nicotinic acid] | 0.043 |
| Cc1ccccc1Oc1cnn([C@H](CC2CCCC2)C(=O)Nc2ccc(C(=O)O)cn2)c(=O)c1 [Example 74B, 6-[(R)-3-Cyclopentyl-2-(6-oxo-4-o-tolyloxy-6H-pyridazin-1-yl)-propionylamino]-nicotinic acid] | 0.245 |
| O=C(O)c1ccc(NC(=O)C(CC2CCCC2)n2ncc(Oc3ccccc3F)cc2=O)nc1 (stereo not shown) [Example 75, 6-{3-Cyclopentyl-2-[4-(2-fluoro-phenoxy)-6-oxo-6H-pyridazin-1-yl]-propionylamino}-nicotinic acid] | 0.058 |
| O=C(O)c1ccc(NC(=O)[C@H](CC2CCCC2)n2ncc(Oc3ccccc3F)cc2=O)nc1 [Example 75A, 6-{(S)-3-Cyclopentyl-2-[4-(2-fluoro-phenoxy)-6-oxo-6H-pyridazin-1-yl]-propionylamino}-nicotinic acid] | 0.033 |
| O=C(O)c1ccc(NC(=O)[C@@H](CC2CCCC2)n2ncc(Oc3ccccc3F)cc2=O)nc1 [Example 75B, 6-{(R)-3-Cyclopentyl-2-[4-(2-fluoro-phenoxy)-6-oxo-6H-pyridazin-1-yl]-propionylamino}-nicotinic acid] | 0.796 |

Source: patent publication US8258134B2, “Pyridazinone glucokinase activators” (Hoffmann-La Roche Inc., priority 2008, dated 2012)
